{"source": "patent EP4467141A1", "about": "“PYRAZOLO-QUINOLINES AS SELECTIVE INHIBITORS OF GENOTOXIC STRESS-INDUCED IKK/NF- KB PATHWAYS FOR CANCER THERAPY” (Max-Delbrück-Centrum für Molekulare Medizin in der …, priority 2023, dated 2024)", "assay_in_all_cases": "Kinase panel study", "format_in_all_cases": "biochemical", "conditions_in_all_cases": "read-out: Percentage of inhibition; for inhibition at 1 µM: 1000nM; for inhibition at 10 µM: 10000nM", "key": {"KDR (VEGFR2)": {"target": "T1, KDR (VEGFR2) (Homo sapiens, UniProt P35968)", "T1 construct": "purchased Thermo Fisher Scientific", "T1 sequence (P35968 20-1356)": "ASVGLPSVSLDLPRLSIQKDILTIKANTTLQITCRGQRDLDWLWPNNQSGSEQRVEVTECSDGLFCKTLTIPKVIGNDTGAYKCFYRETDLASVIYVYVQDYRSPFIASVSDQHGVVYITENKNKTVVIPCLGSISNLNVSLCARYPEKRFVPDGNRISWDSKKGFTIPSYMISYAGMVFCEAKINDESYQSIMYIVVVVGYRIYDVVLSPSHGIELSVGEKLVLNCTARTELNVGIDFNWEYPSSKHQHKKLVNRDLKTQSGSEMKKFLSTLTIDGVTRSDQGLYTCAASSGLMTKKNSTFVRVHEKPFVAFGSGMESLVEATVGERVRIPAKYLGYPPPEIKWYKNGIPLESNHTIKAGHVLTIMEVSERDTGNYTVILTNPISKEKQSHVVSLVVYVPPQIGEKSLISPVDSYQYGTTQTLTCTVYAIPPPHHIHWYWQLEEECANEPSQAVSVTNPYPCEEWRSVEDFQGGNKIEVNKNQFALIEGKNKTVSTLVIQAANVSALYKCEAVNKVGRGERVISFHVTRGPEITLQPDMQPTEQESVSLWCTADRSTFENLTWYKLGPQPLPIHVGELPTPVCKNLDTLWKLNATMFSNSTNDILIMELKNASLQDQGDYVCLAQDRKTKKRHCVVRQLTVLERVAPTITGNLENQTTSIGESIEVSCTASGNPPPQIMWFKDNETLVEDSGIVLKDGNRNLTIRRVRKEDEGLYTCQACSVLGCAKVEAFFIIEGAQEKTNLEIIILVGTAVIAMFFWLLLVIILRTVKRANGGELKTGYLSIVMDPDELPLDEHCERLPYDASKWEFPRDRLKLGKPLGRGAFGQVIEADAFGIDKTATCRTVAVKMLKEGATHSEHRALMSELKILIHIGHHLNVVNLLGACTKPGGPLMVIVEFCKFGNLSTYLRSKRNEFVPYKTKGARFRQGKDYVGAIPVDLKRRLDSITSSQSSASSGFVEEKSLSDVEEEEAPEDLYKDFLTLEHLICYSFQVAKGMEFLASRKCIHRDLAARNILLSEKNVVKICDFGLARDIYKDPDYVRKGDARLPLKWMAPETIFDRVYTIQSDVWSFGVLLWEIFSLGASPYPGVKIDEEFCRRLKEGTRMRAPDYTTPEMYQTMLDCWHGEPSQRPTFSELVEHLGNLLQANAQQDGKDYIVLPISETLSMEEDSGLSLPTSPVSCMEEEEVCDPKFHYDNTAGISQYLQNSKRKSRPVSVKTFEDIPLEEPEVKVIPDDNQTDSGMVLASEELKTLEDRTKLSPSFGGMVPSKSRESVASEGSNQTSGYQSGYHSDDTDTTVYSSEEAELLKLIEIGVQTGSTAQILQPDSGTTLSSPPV", "how_it_was_run": "(§1)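 A commercial kinase profiling service ran the assays according to its ZLyte or Adapta standard protocols. Compound was present at 10 µM or 1 µM, and kinase activity loss was expressed as percent inhibition.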"}, "AMPKA2/B1/G1": {"target": "T2, AMPKA2/B1/G1 (Homo sapiens, UniProt P54646)", "T2 construct": "purchased Thermo Fisher Scientific", "how_it_was_run": "as §1"}, "MAPKAPK2": {"target": "T3, MAPKAPK2 (Homo sapiens, UniProt P49137)", "T3 construct": "purchased Thermo Fisher Scientific", "how_it_was_run": "as §1"}, "CSNK1G1 (CK1 gamma 1)": {"target": "T4, CSNK1G1 (CK1 gamma 1) (Homo sapiens, UniProt Q9HCP0)", "T4 construct": "purchased Thermo Fisher Scientific", "how_it_was_run": "as §1"}, "FYN": {"target": "T5, FYN (Homo sapiens, UniProt P06241)", "T5 construct": "purchased Thermo Fisher Scientific", "how_it_was_run": "as §1"}, "MAPKAPK3": {"target": "T6, MAPKAPK3 (Homo sapiens, UniProt Q16644)", "T6 construct": "purchased Thermo Fisher Scientific", "how_it_was_run": "as §1"}, "MAPK3 (ERK1)": {"target": "T7, MAPK3 (ERK1) (Homo sapiens, UniProt P27361)", "T7 construct": "purchased Thermo Fisher Scientific", "how_it_was_run": "as §1"}, "PIM1": {"target": "T8, PIM1 (Homo sapiens, UniProt P11309)", "T8 construct": "purchased Thermo Fisher Scientific", "how_it_was_run": "as §1"}, "SPHK1": {"target": "T9, SPHK1 (Homo sapiens, UniProt Q9NYA1)", "T9 construct": "purchased Thermo Fisher Scientific", "how_it_was_run": "as §1"}, "ROCK2": {"target": "T10, ROCK2 (Homo sapiens, UniProt O75116)", "T10 construct": "purchased Thermo Fisher Scientific", "how_it_was_run": "as §1"}, "NIM1K": {"target": "T11, NIM1K (Homo sapiens, UniProt Q8IY84)", "T11 construct": "purchased Thermo Fisher Scientific", "how_it_was_run": "as §1"}, "ZAP70": {"target": "T12, ZAP70 (Homo sapiens, UniProt P43403)", "T12 construct": "purchased Thermo Fisher Scientific", "T12 sequence (P43403 1-619)": "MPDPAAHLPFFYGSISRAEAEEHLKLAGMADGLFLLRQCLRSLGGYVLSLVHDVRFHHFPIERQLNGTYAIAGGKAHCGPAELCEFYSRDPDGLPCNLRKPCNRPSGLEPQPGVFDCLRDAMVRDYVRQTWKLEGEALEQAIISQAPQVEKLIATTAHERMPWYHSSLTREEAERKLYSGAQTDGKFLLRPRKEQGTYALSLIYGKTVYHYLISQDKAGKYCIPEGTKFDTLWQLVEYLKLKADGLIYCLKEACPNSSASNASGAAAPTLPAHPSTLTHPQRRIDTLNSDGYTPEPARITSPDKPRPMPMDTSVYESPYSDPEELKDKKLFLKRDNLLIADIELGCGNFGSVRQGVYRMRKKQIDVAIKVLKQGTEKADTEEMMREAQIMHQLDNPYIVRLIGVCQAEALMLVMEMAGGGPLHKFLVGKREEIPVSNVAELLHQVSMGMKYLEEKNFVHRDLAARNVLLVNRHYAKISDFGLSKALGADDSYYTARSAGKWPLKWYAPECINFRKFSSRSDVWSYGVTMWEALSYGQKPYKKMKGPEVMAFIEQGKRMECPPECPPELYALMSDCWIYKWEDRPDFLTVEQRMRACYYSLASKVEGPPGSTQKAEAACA", "how_it_was_run": "as §1"}, "PHKG1": {"target": "T13, PHKG1 (Homo sapiens, UniProt Q16816)", "T13 construct": "purchased Thermo Fisher Scientific", "how_it_was_run": "as §1"}, "ABL1 F317L": {"target": "T14, ABL1 F317L (Homo sapiens, UniProt P00519, F317L)", "T14 construct": "purchased Thermo Fisher Scientific", "T14 sequence (P00519 whole entry F317L)": "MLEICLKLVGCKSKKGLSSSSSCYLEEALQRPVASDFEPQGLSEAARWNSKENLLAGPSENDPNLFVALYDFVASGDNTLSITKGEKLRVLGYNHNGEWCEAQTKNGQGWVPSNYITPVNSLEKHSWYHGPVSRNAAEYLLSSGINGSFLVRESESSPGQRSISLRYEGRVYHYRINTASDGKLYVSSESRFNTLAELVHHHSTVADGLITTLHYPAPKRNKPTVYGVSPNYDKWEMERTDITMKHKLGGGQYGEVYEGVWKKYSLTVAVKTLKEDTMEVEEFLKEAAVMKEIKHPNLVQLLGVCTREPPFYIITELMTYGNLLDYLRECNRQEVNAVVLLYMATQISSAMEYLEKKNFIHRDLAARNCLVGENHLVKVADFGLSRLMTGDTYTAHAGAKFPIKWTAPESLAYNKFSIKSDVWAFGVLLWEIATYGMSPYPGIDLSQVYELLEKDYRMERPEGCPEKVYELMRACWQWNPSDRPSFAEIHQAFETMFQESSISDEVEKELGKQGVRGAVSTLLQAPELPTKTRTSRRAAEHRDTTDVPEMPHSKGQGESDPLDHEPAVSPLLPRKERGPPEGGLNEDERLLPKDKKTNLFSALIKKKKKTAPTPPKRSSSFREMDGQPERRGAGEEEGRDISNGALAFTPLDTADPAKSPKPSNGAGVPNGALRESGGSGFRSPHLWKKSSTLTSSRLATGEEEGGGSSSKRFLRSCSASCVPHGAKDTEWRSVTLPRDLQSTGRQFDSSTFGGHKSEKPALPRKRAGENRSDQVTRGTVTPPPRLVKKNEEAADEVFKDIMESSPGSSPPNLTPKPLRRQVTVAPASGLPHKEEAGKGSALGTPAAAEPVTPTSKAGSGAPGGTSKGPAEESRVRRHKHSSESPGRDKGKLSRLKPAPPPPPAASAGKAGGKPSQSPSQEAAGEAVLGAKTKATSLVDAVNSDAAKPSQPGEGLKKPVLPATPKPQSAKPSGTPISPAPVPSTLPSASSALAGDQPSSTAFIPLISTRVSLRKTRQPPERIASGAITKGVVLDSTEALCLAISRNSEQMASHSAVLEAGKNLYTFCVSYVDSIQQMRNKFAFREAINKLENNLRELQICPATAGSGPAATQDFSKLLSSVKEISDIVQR", "how_it_was_run": "as §1"}}}
{"smiles": "COc1ccc2c(c1OC)c(=O)n1c3ccc(O)cc3c3ccnc2c31", "note": "[MW01, 5-Hydroxy-10,11-dimethoxy-9H-benzo[c]indolo[3,2,1-ij][1,5]naphthyridin-9-one]", "values": [{"measurement": "inhibition at 1 µM", "setting": "KDR (VEGFR2)", "result": 24, "unit": "%"}, {"measurement": "inhibition at 10 µM", "setting": "KDR (VEGFR2)", "result": 54, "unit": "%"}, {"measurement": "inhibition at 1 µM", "setting": "AMPKA2/B1/G1", "result": 8, "unit": "%"}, {"measurement": "inhibition at 10 µM", "setting": "AMPKA2/B1/G1", "result": 32, "unit": "%"}, {"measurement": "inhibition at 1 µM", "setting": "MAPKAPK2", "result": 3, "unit": "%"}, {"measurement": "inhibition at 10 µM", "setting": "MAPKAPK2", "result": 3, "unit": "%"}, {"measurement": "inhibition at 1 µM", "setting": "CSNK1G1 (CK1 gamma 1)", "result": 5, "unit": "%"}, {"measurement": "inhibition at 10 µM", "setting": "CSNK1G1 (CK1 gamma 1)", "result": 12, "unit": "%"}, {"measurement": "inhibition at 1 µM", "setting": "FYN", "result": 3, "unit": "%"}, {"measurement": "inhibition at 10 µM", "setting": "FYN", "result": 15, "unit": "%"}, {"measurement": "inhibition at 1 µM", "setting": "MAPKAPK3", "result": 8, "unit": "%"}, {"measurement": "inhibition at 10 µM", "setting": "MAPKAPK3", "result": 24, "unit": "%"}, {"measurement": "inhibition at 1 µM", "setting": "MAPK3 (ERK1)", "result": 14, "unit": "%"}, {"measurement": "inhibition at 10 µM", "setting": "MAPK3 (ERK1)", "result": 4, "unit": "%"}, {"measurement": "inhibition at 1 µM", "setting": "PIM1", "result": 11, "unit": "%"}, {"measurement": "inhibition at 10 µM", "setting": "PIM1", "result": 24, "unit": "%"}, {"measurement": "inhibition at 1 µM", "setting": "SPHK1", "result": -7, "unit": "%"}, {"measurement": "inhibition at 10 µM", "setting": "SPHK1", "result": -3, "unit": "%"}, {"measurement": "inhibition at 1 µM", "setting": "ROCK2", "result": 14, "unit": "%"}, {"measurement": "inhibition at 10 µM", "setting": "ROCK2", "result": 18, "unit": "%"}, {"measurement": "inhibition at 1 µM", "setting": "NIM1K", "result": 7, "unit": "%"}, {"measurement": "inhibition at 10 µM", "setting": "NIM1K", "result": 13, "unit": "%"}, {"measurement": "inhibition at 1 µM", "setting": "ZAP70", "result": 12, "unit": "%"}, {"measurement": "inhibition at 10 µM", "setting": "ZAP70", "result": 16, "unit": "%"}, {"measurement": "inhibition at 1 µM", "setting": "PHKG1", "result": 8, "unit": "%"}, {"measurement": "inhibition at 10 µM", "setting": "PHKG1", "result": 12, "unit": "%"}, {"measurement": "inhibition at 1 µM", "setting": "ABL1 F317L", "result": 8, "unit": "%"}, {"measurement": "inhibition at 10 µM", "setting": "ABL1 F317L", "result": 13, "unit": "%"}]}
{"smiles": "COc1ccc2cc3c(N)nn(C(=O)c4cccc(N(C)C)c4)c3nc2c1", "note": "[MW05, (3-Amino-7-methoxypyrazolo[3,4-b]quinolin-1-yl)-[3-(dimethylamino)phenyl]methanone]", "values": [{"measurement": "inhibition at 1 µM", "setting": "KDR (VEGFR2)", "result": 7, "unit": "%"}, {"measurement": "inhibition at 10 µM", "setting": "KDR (VEGFR2)", "result": -15, "unit": "%"}, {"measurement": "inhibition at 1 µM", "setting": "AMPKA2/B1/G1", "result": 5, "unit": "%"}, {"measurement": "inhibition at 10 µM", "setting": "AMPKA2/B1/G1", "result": 0, "unit": "%"}, {"measurement": "inhibition at 1 µM", "setting": "MAPKAPK2", "result": 4, "unit": "%"}, {"measurement": "inhibition at 10 µM", "setting": "MAPKAPK2", "result": -6, "unit": "%"}, {"measurement": "inhibition at 1 µM", "setting": "CSNK1G1 (CK1 gamma 1)", "result": 3, "unit": "%"}, {"measurement": "inhibition at 10 µM", "setting": "CSNK1G1 (CK1 gamma 1)", "result": 6, "unit": "%"}, {"measurement": "inhibition at 1 µM", "setting": "FYN", "result": 4, "unit": "%"}, {"measurement": "inhibition at 10 µM", "setting": "FYN", "result": 5, "unit": "%"}, {"measurement": "inhibition at 1 µM", "setting": "MAPKAPK3", "result": 10, "unit": "%"}, {"measurement": "inhibition at 10 µM", "setting": "MAPKAPK3", "result": 3, "unit": "%"}, {"measurement": "inhibition at 1 µM", "setting": "MAPK3 (ERK1)", "result": 14, "unit": "%"}, {"measurement": "inhibition at 10 µM", "setting": "MAPK3 (ERK1)", "result": 11, "unit": "%"}, {"measurement": "inhibition at 1 µM", "setting": "PIM1", "result": 8, "unit": "%"}, {"measurement": "inhibition at 10 µM", "setting": "PIM1", "result": -9, "unit": "%"}, {"measurement": "inhibition at 1 µM", "setting": "SPHK1", "result": -2, "unit": "%"}, {"measurement": "inhibition at 10 µM", "setting": "SPHK1", "result": 1, "unit": "%"}, {"measurement": "inhibition at 1 µM", "setting": "ROCK2", "result": 14, "unit": "%"}, {"measurement": "inhibition at 10 µM", "setting": "ROCK2", "result": 4, "unit": "%"}, {"measurement": "inhibition at 1 µM", "setting": "NIM1K", "result": 7, "unit": "%"}, {"measurement": "inhibition at 10 µM", "setting": "NIM1K", "result": 2, "unit": "%"}, {"measurement": "inhibition at 1 µM", "setting": "ZAP70", "result": 15, "unit": "%"}, {"measurement": "inhibition at 10 µM", "setting": "ZAP70", "result": 11, "unit": "%"}, {"measurement": "inhibition at 1 µM", "setting": "PHKG1", "result": 3, "unit": "%"}, {"measurement": "inhibition at 10 µM", "setting": "PHKG1", "result": -11, "unit": "%"}, {"measurement": "inhibition at 1 µM", "setting": "ABL1 F317L", "result": 6, "unit": "%"}, {"measurement": "inhibition at 10 µM", "setting": "ABL1 F317L", "result": 4, "unit": "%"}]}
